# Measurements from PubChem BioAssay (NCI).
#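 Interpolation was linear, between the two tested concentrations surrounding the appropriate level; five concentrations were tested over 48 hours in 96-well plates. GI50 is the concentration that inhibits growth by half. Definition used: TGI = concentration required for complete inhibition of growth.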
# What was measured:
# Assay in all cases: NCI tumour cell line growth inhibition, 48 h
# EKVX NSCLC = system: EKVX NSCLC
# IGROV1 ovarian = system: IGROV1 ovarian
# NCI-H460 lung = system: NCI-H460 lung
# A498 renal = system: A498 renal
# MALME-3M melanoma = system: MALME-3M melanoma
# DMS 273 small cell lung = system: DMS 273 small cell lung
# HT29 colon = system: HT29 colon
# SW-620 colon = system: SW-620 colon
# KM20L2 colon = system: KM20L2 colon
# KM12 colon = system: KM12 colon
# UO-31 renal = system: UO-31 renal
# UACC-257 melanoma = system: UACC-257 melanoma
# HCC-2998 colon = system: HCC-2998 colon
# SK-MEL-2 melanoma = system: SK-MEL-2 melanoma
# LXFL 529 NSCLC = system: LXFL 529 NSCLC
# SK-OV-3 ovarian = system: SK-OV-3 ovarian
# A549 NSCLC = system: A549 NSCLC
# SF-268 CNS = system: SF-268 CNS
# COLO 205 colon = system: COLO 205 colon
# SN12C renal = system: SN12C renal
# OVCAR-8 ovarian = system: OVCAR-8 ovarian
# NCI-H522 lung = system: NCI-H522 lung
# OVCAR-3 ovarian = system: OVCAR-3 ovarian
# NCI-H23 lung = system: NCI-H23 lung
# LOX IMVI melanoma = system: LOX IMVI melanoma
# OVCAR-5 ovarian = system: OVCAR-5 ovarian
# K-562 leukemia = system: K-562 leukemia
# HCT-116 colon = system: HCT-116 colon
# SF-539 CNS = system: SF-539 CNS
# U251 CNS = system: U251 CNS
# SF-295 CNS = system: SF-295 CNS
# SK-MEL-28 melanoma = system: SK-MEL-28 melanoma
# HOP-62 NSCLC = system: HOP-62 NSCLC
# TK-10 renal = system: TK-10 renal
# SNB-75 CNS = system: SNB-75 CNS
# HCT-15 colon = system: HCT-15 colon
# SNB-19 CNS = system: SNB-19 CNS
# UACC-62 melanoma = system: UACC-62 melanoma
# MOLT-4 leukemia = system: MOLT-4 leukemia
# 786-0 renal = system: 786-0 renal
# RPMI-8226 leukemia = system: RPMI-8226 leukemia
# CCRF-CEM leukemia = system: CCRF-CEM leukemia
# SNB-78 CNS = system: SNB-78 CNS
# OVCAR-4 ovarian = system: OVCAR-4 ovarian
# SK-MEL-5 melanoma = system: SK-MEL-5 melanoma
# ACHN renal = system: ACHN renal
# M14 melanoma = system: M14 melanoma
# HOP-92 NSCLC = system: HOP-92 NSCLC
# DLD-1 colon = system: DLD-1 colon
compound,measurement,setting,value
CC(C)CC(=O)[O-].N.N.N.N.N.[Co+3].[O-][Cl+3]([O-])([O-])[O-],GI50,EKVX NSCLC,> 100 µM
same,TGI,EKVX NSCLC,> 100 µM
same,GI50,IGROV1 ovarian,> 100 µM
same,TGI,IGROV1 ovarian,> 100 µM
same,GI50,NCI-H460 lung,> 100 µM
same,TGI,NCI-H460 lung,> 100 µM
same,GI50,A498 renal,> 100 µM
same,TGI,A498 renal,> 100 µM
same,GI50,MALME-3M melanoma,> 100 µM
same,TGI,MALME-3M melanoma,> 100 µM
same,GI50,DMS 273 small cell lung,> 100 µM
same,TGI,DMS 273 small cell lung,> 100 µM
same,GI50,HT29 colon,> 100 µM
same,TGI,HT29 colon,> 100 µM
same,GI50,SW-620 colon,> 100 µM
same,TGI,SW-620 colon,> 100 µM
same,GI50,KM20L2 colon,> 100 µM
same,TGI,KM20L2 colon,> 100 µM
same,GI50,KM12 colon,> 100 µM
same,TGI,KM12 colon,> 100 µM
same,GI50,UO-31 renal,85.7 µM
same,TGI,UO-31 renal,> 100 µM
same,GI50,UACC-257 melanoma,> 100 µM
same,TGI,UACC-257 melanoma,> 100 µM
same,GI50,HCC-2998 colon,> 100 µM
same,TGI,HCC-2998 colon,> 100 µM
same,GI50,SK-MEL-2 melanoma,> 100 µM
same,TGI,SK-MEL-2 melanoma,> 100 µM
same,GI50,LXFL 529 NSCLC,> 100 µM
same,TGI,LXFL 529 NSCLC,> 100 µM
same,GI50,SK-OV-3 ovarian,> 100 µM
same,TGI,SK-OV-3 ovarian,> 100 µM
same,GI50,A549 NSCLC,> 100 µM
same,TGI,A549 NSCLC,> 100 µM
same,GI50,SF-268 CNS,> 100 µM
same,TGI,SF-268 CNS,> 100 µM
same,GI50,COLO 205 colon,> 100 µM
same,TGI,COLO 205 colon,> 100 µM
same,GI50,SN12C renal,> 100 µM
same,TGI,SN12C renal,> 100 µM
same,GI50,OVCAR-8 ovarian,> 100 µM
same,TGI,OVCAR-8 ovarian,> 100 µM
same,GI50,NCI-H522 lung,> 100 µM
same,TGI,NCI-H522 lung,> 100 µM
same,GI50,OVCAR-3 ovarian,> 100 µM
same,TGI,OVCAR-3 ovarian,> 100 µM
same,GI50,NCI-H23 lung,> 100 µM
same,TGI,NCI-H23 lung,> 100 µM
same,GI50,LOX IMVI melanoma,> 100 µM
same,TGI,LOX IMVI melanoma,> 100 µM
same,GI50,OVCAR-5 ovarian,> 100 µM
same,TGI,OVCAR-5 ovarian,> 100 µM
same,GI50,K-562 leukemia,> 100 µM
same,TGI,K-562 leukemia,> 100 µM
same,GI50,HCT-116 colon,> 100 µM
same,TGI,HCT-116 colon,> 100 µM
same,GI50,SF-539 CNS,> 100 µM
same,TGI,SF-539 CNS,> 100 µM
same,GI50,U251 CNS,> 100 µM
same,TGI,U251 CNS,> 100 µM
same,GI50,SF-295 CNS,> 100 µM
same,TGI,SF-295 CNS,> 100 µM
same,GI50,SK-MEL-28 melanoma,> 100 µM
same,TGI,SK-MEL-28 melanoma,> 100 µM
same,GI50,HOP-62 NSCLC,> 100 µM
same,TGI,HOP-62 NSCLC,> 100 µM
same,GI50,TK-10 renal,> 100 µM
same,TGI,TK-10 renal,> 100 µM
same,GI50,SNB-75 CNS,22 µM
same,TGI,SNB-75 CNS,> 100 µM
same,GI50,HCT-15 colon,> 100 µM
same,TGI,HCT-15 colon,> 100 µM
same,GI50,SNB-19 CNS,> 100 µM
same,TGI,SNB-19 CNS,> 100 µM
same,GI50,UACC-62 melanoma,> 100 µM
same,TGI,UACC-62 melanoma,> 100 µM
same,GI50,MOLT-4 leukemia,70.8 µM
same,TGI,MOLT-4 leukemia,> 100 µM
same,GI50,786-0 renal,> 100 µM
same,TGI,786-0 renal,> 100 µM
same,GI50,RPMI-8226 leukemia,> 100 µM
same,TGI,RPMI-8226 leukemia,> 100 µM
same,GI50,CCRF-CEM leukemia,> 100 µM
same,TGI,CCRF-CEM leukemia,> 100 µM
same,GI50,SNB-78 CNS,> 100 µM
same,TGI,SNB-78 CNS,> 100 µM
same,GI50,OVCAR-4 ovarian,> 100 µM
same,TGI,OVCAR-4 ovarian,> 100 µM
same,GI50,SK-MEL-5 melanoma,> 100 µM
same,TGI,SK-MEL-5 melanoma,> 100 µM
same,GI50,ACHN renal,> 100 µM
same,TGI,ACHN renal,> 100 µM
same,GI50,M14 melanoma,> 100 µM
same,TGI,M14 melanoma,> 100 µM
same,GI50,HOP-92 NSCLC,> 100 µM
same,TGI,HOP-92 NSCLC,> 100 µM
same,GI50,DLD-1 colon,> 100 µM
same,TGI,DLD-1 colon,> 100 µM
